Legend:
[1] = target: T1, Bifunctional epoxide hydrolase 2 (Homo sapiens, UniProt P34913)
T1 sequence (P34913 whole entry): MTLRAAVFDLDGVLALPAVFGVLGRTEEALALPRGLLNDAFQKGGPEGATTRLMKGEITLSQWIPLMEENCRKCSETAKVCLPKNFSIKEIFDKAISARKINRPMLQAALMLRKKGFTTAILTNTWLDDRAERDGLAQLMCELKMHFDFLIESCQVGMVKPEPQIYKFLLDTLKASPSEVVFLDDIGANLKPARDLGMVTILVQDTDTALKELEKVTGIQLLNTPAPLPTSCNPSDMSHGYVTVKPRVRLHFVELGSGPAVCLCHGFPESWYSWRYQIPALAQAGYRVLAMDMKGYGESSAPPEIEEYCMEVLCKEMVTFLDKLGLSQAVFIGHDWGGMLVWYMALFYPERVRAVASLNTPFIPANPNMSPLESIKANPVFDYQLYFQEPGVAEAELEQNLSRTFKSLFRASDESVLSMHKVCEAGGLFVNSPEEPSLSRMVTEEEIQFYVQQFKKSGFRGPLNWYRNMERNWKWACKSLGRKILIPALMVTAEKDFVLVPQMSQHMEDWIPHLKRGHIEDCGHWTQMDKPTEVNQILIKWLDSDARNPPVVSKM

[2] = AUC in dog at 0.3 mg/kg, po; assay type: ADME, organism-based, Canis lupus familiaris; parameters: dose 0.3 mg/kg, route oral; conditions: plasma

Row | SMILES | IC50 [1] [nM] | AUC [2] [µM·h]
1 | O=C(NC1CCN(C(=O)c2cccnc2)CC1)NC12CC3CC(CC(C3)C1)C2 | 1.7 | –
2 | O=C(NC1CCN(C(=O)c2ccncc2)CC1)NC12CC3CC(CC(C3)C1)C2 | 2.1 | –
3 | O=C(NCC1CCN(C(=O)c2ccccc2C(=O)O)CC1)NC12CC3CC(CC(C3)C1)C2 | 400 | –
4 | O=C(NCC1CCN(C(=O)c2ccccc2)CC1)NC12CC3CC(CC(C3)C1)C2 | – | 0.0055
5 | CCC(=O)N1CCC(NC(=O)NC23CC4CC(CC(C4)C2)C3)CC1 | – | 0.108
6 | CC(=O)N1CCC(CNC(=O)NC23CC4CC(CC(C4)C2)C3)CC1 | – | 0.0917
7 | O=C(NCC1CCN(C(=O)c2ccncc2)CC1)NC12CC3CC(CC(C3)C1)C2 | 7.3 | –
8 | CCCC(=O)N1CCC(NC(=O)NC23CC4CC(CC(C4)C2)C3)CC1 | – | 0.0417
9 | O=C(NC1CCN(C(=O)c2ccccn2)CC1)NC12CC3CC(CC(C3)C1)C2 | – | 0.0783
10 | O=C(O)CCCCCCCCCCCNC(=O)NC12CC3CC(CC(C3)C1)C2 | – | 0.0517
11 | O=C(O)CCCC(=O)N1CCC(CNC(=O)NC23CC4CC(CC(C4)C2)C3)CC1 | 41 | –
12 | O=C(NC1CCN(C(=O)c2ccccc2)CC1)NC12CC3CC(CC(C3)C1)C2 | – | 0.0102
13 | O=C(NC1CCN(C(=O)C(F)(F)F)CC1)NC12CC3CC(CC(C3)C1)C2 | – | 0.055
14 | O=C(NCC1CCN(C(=O)c2cccnc2)CC1)NC12CC3CC(CC(C3)C1)C2 | 5.4 | –
15 | O=C(NCC1CCN(C(=O)c2cccc(C(=O)O)c2)CC1)NC12CC3CC(CC(C3)C1)C2 | 43 | –
16 | CC(=O)N1CCC(NC(=O)NC23CC4CC(CC(C4)C2)C3)CC1 [AR9281] | – | 0.617
